The source of these data is patent US12492183B2, “Tetrahydroquinazoline derivatives as selective cytotoxic agents” (Merck Sharp & Dohme LLC, priority 2020, dated 2025).

SMILES strings stand for the structures.

The test system of the test is PBMCs infected with VSV-G pseudotyped HIV virus (VSV-G/pNLG1-P2A-ΔEnv). The experiment in a line: cells. The class given is cell-based. The note with it: Homo sapiens, PBMC, read-out: TACK EC50.
Consider `Nc1cncc(Cc2ccc3c(c2)NC(=O)N[C@]3(C#CC2CC2)C(F)(F)F)n1` [Example 54, (S)-7-((6-aminopyrazin-2-yl)-methyl)-4-(cyclopropyl-ethynyl)-4-(trifluoromethyl)-3,4-dihydroquinazolin-2(1H)-one], for which the EC50 is 67.3 nM. Then `NC(=O)c1c(Cc2ccc3c(c2)NC(=O)N[C@]3(C#CC2CC2)C(F)(F)F)ccnc1N` [Example 55], with 191 nM; and `N#Cc1cnccc1Cc1cc2c(cc1F)[C@@](C#CC1CC1)(C(F)(F)F)NC(=O)N2` [Example 56, (S)-4-((4-(cyclopropylethynyl)-6-fluoro-2-oxo-4-(trifluoromethyl)-1,2,3,4-tetrahydroquinazolin-7-yl)methyl)nicotinonitrile], with 83.5 nM; and `O=C1Nc2cc(Cc3ccncc3)c(F)cc2[C@@](C#CC2CC2)(C(F)(F)F)N1` [Example 57, (S)-4-(cyclopropylethynyl)-6-fluoro-7-(pyridin-4-ylmethyl)-4-(trifluoromethyl)-3,4-dihydroquinazolin-2(1H)-one], with 120 nM. Turning to `CC(F)(F)[C@@]1(C#CC2CC2)NC(=O)Nc2cc(Cc3nc(N)ncc3F)ccc21` [Example 58, (S)-7-((2-amino-5-fluoropyrimidin-4-yl)methyl)-4-(cyclopropylethynyl)-4-(1,1-difluoroethyl)-3,4-dihydroquinazolin-2(1H)-one], the EC50 stood at 82.8 nM. Turning to `Nc1nccc(Cc2c(F)cc3c(c2F)NC(=O)N[C@]3(C#CC2CC2)C(F)(F)F)n1` [Example 59, (S)-7-((2-aminopyrimidin-4-yl)methyl)-4-(cyclopropylethynyl)-6,8-difluoro-4-(trifluoromethyl)-3,4-dihydroquinazolin-2(1H)-one], the 50% effective concentration (EC50) came out at 122 nM. Then `O=C1Nc2cc(Cc3ncc[nH]c3=O)ccc2[C@@](C#CC2CC2)(C(F)(F)F)N1` [Example 61, (S)-4-(cyclopropylethynyl)-7-((3-hydroxypyrazin-2-yl)methyl)-4-(trifluoromethyl)-3,4-dihydroquinazolin-2(1H)-one], with 65 nM; and `Cc1nc(CO)[nH]c(=O)c1Cc1ccc2c(c1)NC(=O)N[C@]2(C#CC1CC1)C(F)(F)F` [Example 63, (S)-4-(cyclopropylethynyl)-7-((2-(hydroxymethyl)-4-methyl-6-oxo-1,6-dihydropyrimidin-5-yl)methyl)-4-(trifluoromethyl)-3,4-dihydroquinazolin-2(1H)-one], with 176 nM.
